Assay results: publication PMC8799717, “Pharmacological targeting PIKfyve and tubulin as an effective treatment strategy for double-hit lymphoma” (Cell Death Discovery, 2022)

What was measured:
Experiment in all cases: biochemical
Set-up in all cases: KINOMEscan active-site-directed competition binding panel, 468 kinases, percent of DMSO control at 1 uM
Settings in all cases: KINOMEscan binding, percent of DMSO control; read-out: Ctrl%
[1] = molecular target: EPHA6 (Homo sapiens, UniProt Q9UF33)
[2] = molecular target: CDKL1 (Homo sapiens, UniProt Q00532)
[3] = molecular target: MAP3K15 (Homo sapiens, UniProt Q6ZN16)
[4] = molecular target: PIK3CA(E545A) (Homo sapiens, UniProt P42336, E545A)
[5] = molecular target: NEK6 (Homo sapiens, UniProt Q9HC98)
[6] = molecular target: T1, TIE2 (Homo sapiens, UniProt Q02763)
T1 construct: gene TEK

[7] = molecular target: T2, TYK2(JH2domain-pseudokinase) (Homo sapiens, UniProt P29597)
T2 construct: JH2domain-pseudokinase

[8] = molecular target: PLK3 (Homo sapiens, UniProt Q9H4B4)
[9] = molecular target: PIP5K1C (Homo sapiens, UniProt O60331)
[10] = molecular target: PRKD2 (Homo sapiens, UniProt Q9BZL6)
[11] = molecular target: EPHA3 (Homo sapiens, UniProt P29320)
[12] = molecular target: SBK1 (Homo sapiens, UniProt Q52WX2)
[13] = molecular target: HASPIN (Homo sapiens, UniProt Q8TF76)
[14] = molecular target: T3, YANK3 (Homo sapiens, UniProt Q86UX6)
T3 construct: gene STK32C

[15] = molecular target: TNIK (Homo sapiens, UniProt Q9UKE5)
[16] = molecular target: ALK(L1196M) (Homo sapiens, UniProt Q9UM73, L1196M)
[17] = molecular target: EGFR(L747-T751del,Sins) (Homo sapiens, UniProt P00533, DEL747-750/T751S)
[18] = molecular target: STK39 (Homo sapiens, UniProt Q9UEW8)
[19] = molecular target: T4, NIK (Homo sapiens, UniProt Q99558)
T4 construct: gene MAP3K14

[20] = molecular target: RET(V804L) (Homo sapiens, UniProt P07949, V804L)
[21] = molecular target: T5, p38-alpha (Homo sapiens, UniProt Q16539)
T5 construct: gene MAPK14

[22] = molecular target: PLK2 (Homo sapiens, UniProt Q9NYY3)
[23] = molecular target: EPHB2 (Homo sapiens, UniProt P29323)
Chain of EPHB2 (P29323 whole entry): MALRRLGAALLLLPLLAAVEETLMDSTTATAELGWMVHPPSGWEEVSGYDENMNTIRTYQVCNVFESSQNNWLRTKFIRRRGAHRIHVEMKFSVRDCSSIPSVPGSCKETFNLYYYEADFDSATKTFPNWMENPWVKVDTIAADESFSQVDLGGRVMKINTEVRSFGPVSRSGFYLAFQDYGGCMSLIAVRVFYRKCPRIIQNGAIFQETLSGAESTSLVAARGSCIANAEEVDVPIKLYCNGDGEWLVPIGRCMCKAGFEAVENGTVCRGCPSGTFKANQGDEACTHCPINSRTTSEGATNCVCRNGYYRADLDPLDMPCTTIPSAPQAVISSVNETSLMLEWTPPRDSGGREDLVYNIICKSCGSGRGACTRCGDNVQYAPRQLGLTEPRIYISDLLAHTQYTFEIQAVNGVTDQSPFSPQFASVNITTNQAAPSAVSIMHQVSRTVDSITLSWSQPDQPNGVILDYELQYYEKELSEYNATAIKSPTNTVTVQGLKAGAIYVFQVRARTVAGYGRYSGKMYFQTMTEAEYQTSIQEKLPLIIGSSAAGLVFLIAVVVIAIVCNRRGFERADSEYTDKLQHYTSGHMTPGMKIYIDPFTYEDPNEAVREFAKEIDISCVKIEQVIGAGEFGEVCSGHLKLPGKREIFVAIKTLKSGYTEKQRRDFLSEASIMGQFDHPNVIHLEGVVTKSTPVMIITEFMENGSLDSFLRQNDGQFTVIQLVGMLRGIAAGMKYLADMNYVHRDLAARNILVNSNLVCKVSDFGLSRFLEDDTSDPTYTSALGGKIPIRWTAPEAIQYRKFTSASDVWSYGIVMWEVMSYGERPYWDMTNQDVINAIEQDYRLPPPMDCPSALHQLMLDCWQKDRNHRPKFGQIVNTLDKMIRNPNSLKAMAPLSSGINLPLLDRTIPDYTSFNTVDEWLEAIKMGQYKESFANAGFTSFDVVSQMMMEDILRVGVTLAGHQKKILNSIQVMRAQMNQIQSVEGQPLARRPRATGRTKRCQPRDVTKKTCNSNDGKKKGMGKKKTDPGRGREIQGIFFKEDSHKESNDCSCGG

T3 sequence (Q86UX6 whole entry): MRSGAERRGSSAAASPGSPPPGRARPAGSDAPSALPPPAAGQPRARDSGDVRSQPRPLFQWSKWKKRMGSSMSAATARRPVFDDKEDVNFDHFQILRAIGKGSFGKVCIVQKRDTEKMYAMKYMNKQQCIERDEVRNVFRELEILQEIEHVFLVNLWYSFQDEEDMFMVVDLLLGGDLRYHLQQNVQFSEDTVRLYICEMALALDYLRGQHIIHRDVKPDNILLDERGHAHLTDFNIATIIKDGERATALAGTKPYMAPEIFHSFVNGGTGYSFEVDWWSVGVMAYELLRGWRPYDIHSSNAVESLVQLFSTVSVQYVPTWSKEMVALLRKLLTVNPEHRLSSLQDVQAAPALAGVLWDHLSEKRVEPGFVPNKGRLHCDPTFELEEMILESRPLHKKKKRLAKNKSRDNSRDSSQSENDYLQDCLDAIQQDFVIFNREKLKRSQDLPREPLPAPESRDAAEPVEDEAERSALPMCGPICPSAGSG
Chain of CDKL1 (Q00532 whole entry): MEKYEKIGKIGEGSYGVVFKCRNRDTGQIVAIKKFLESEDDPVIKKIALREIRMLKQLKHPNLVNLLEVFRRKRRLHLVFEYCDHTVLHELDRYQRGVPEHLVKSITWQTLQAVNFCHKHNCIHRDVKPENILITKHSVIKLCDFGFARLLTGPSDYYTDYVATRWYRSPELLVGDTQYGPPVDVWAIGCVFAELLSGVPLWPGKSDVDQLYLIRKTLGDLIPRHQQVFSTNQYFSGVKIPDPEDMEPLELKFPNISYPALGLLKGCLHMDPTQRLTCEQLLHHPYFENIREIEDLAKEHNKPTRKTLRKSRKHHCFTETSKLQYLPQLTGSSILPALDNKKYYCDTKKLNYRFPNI
Chain of EPHA3 (P29320 whole entry): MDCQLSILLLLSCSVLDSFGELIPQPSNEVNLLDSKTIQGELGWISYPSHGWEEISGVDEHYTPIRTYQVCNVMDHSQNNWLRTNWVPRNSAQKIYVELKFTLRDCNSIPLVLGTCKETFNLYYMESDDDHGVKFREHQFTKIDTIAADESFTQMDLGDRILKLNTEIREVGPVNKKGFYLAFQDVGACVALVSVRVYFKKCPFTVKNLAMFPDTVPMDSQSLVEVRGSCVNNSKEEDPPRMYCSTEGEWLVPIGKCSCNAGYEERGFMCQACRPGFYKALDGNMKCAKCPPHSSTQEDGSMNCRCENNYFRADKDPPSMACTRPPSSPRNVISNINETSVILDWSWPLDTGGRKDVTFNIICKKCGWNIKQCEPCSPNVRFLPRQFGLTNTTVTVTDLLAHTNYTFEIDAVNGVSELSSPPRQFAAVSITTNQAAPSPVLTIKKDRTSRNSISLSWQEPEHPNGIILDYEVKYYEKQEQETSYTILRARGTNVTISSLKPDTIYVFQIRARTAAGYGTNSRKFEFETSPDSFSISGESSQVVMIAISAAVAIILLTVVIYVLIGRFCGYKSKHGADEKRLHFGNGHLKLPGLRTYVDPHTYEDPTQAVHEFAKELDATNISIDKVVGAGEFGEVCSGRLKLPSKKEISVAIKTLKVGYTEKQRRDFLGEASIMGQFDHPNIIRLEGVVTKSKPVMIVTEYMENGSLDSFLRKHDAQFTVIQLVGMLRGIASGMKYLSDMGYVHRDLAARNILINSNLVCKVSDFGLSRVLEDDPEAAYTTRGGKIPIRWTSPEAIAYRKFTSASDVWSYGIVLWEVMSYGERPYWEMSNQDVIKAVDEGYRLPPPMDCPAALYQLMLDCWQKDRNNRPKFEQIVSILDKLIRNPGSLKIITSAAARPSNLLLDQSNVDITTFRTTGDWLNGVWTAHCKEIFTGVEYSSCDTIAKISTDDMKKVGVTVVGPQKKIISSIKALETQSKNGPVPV
Chain of NEK6 (Q9HC98 whole entry): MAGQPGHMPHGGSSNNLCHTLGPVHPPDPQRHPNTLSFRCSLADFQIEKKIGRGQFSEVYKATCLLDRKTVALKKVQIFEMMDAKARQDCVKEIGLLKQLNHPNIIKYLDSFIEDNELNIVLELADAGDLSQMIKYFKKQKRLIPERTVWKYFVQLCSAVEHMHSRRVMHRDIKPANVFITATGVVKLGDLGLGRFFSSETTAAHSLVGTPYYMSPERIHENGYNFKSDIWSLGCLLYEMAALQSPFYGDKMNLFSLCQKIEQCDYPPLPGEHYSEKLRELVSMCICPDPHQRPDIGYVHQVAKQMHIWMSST
Chain of SBK1 (Q52WX2 whole entry): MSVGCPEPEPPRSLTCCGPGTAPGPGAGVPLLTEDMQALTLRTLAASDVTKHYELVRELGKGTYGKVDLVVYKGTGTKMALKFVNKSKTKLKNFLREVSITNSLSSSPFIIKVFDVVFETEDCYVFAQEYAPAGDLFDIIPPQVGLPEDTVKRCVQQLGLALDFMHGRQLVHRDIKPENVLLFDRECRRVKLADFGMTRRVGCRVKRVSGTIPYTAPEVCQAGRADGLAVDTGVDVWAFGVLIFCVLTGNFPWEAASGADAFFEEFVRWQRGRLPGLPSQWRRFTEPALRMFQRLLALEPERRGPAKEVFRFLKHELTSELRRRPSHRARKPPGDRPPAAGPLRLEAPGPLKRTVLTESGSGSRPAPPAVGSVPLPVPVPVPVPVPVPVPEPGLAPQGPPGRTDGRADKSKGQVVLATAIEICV
Chain of PIP5K1C (O60331 whole entry): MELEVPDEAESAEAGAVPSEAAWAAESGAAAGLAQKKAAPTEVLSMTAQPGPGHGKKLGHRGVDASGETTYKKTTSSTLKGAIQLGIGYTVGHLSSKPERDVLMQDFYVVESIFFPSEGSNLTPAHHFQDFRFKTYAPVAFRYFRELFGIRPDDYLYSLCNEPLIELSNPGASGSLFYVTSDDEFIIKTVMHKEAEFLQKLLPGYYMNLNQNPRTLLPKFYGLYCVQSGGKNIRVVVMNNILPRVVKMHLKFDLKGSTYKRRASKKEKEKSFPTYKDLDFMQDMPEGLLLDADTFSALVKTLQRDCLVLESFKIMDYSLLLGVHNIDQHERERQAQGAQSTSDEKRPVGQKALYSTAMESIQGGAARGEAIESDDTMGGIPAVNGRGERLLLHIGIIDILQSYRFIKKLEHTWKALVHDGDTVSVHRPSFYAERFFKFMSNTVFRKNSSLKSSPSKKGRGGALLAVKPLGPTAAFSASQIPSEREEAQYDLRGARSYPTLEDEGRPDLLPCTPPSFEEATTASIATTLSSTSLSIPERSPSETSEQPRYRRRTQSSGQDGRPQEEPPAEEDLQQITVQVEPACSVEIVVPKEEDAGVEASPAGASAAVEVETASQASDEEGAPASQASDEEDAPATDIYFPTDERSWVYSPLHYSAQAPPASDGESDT
T5 sequence (Q16539 whole entry): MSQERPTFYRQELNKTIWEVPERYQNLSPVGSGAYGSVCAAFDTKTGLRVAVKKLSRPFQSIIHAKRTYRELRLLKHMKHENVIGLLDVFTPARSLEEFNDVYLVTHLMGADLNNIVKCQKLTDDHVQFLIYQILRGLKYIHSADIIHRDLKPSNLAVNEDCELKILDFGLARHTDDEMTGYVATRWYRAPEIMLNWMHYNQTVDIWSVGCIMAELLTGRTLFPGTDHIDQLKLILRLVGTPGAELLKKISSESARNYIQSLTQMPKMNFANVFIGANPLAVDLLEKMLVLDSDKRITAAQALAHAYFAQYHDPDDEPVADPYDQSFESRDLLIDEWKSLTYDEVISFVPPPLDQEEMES

## Cc1ccc(NC(=O)c2cccc(C(F)(F)F)c2)cc1Nc1cc(-c2cccnc2)nc2[nH]ccc12 [HZX-02-059]
[1]
  remaining binding at 1 µM: 69%
[2]
  remaining binding at 1 µM: 89%
[3]
  remaining binding at 1 µM: 53%
[4]
  remaining binding at 1 µM: 88%
[5]
  remaining binding at 1 µM: 98%
[6]
  remaining binding at 1 µM: 66%
[7]
  remaining binding at 1 µM: 92%
[8]
  remaining binding at 1 µM: 93%
[9]
  remaining binding at 1 µM: 73%
[10]
  remaining binding at 1 µM: 92%
[11]
  remaining binding at 1 µM: 27%
[12]
  remaining binding at 1 µM: 88%
[13]
  remaining binding at 1 µM: 100%
[14]
  remaining binding at 1 µM: 81%
[15]
  remaining binding at 1 µM: 100%
[16]
  remaining binding at 1 µM: 97%
[17]
  remaining binding at 1 µM: 77%
[18]
  remaining binding at 1 µM: 94%
[19]
  remaining binding at 1 µM: 61%
[20]
  remaining binding at 1 µM: 100%
[21]
  remaining binding at 1 µM: 77%
[22]
  remaining binding at 1 µM: 99%
[23]
  remaining binding at 1 µM: 4.7%
